Measurements as given in PubChem BioAssay AID248 (DTP/NCI, 2004).
Values joined by “and” are separate entries in the source; they are usually repeats but may differ in a detail not shown here. Equal values may be shown once. Inconclusive results and toxic doses are left out. Cut-off read from the data, not from the text of the source: active = T/C of 150% or more; inactive = T/C below 125%. Square brackets hold non-standard residues; d marks the D form. Peptide text beside a SMILES is read from it. * marks the point of attachment. Cbz = O=C(OCc1ccccc1)*; Abu = CC[CH](N)C(=O)O; OBn = c1ccc(CO*)cc1

System: L1210 leukemia ip in BDF1 mice, survival T/C
Assay: NCI In Vivo Anticancer Drug Screen. Data for tumor model L1210 Leukemia (intraperitoneal) in B6D2F1 (BDF1) mice
Conditions: endpoint: mean survival time, higher = longer survival
How it was run: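 Tumor was transplanted into mice, which were then dosed with test compound or vehicle alone. Survival was recorded for each group, and the treated figure was expressed relative to the control figure.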

[1] = dose: 100.0 mg/kg/injection, schedule: Q01DX009 (ip), vehicle: saline
[2] = dose: 200.0 mg/kg/injection, schedule: Q01DX009 (ip), vehicle: saline
[3] = dose: 100.0 mg/kg/injection, schedule: Q01DX009 (ip), vehicle: Klucel (hydroxypropylcellulose) (HPC)
[4] = dose: 200.0 mg/kg/injection, schedule: Q01DX009 (ip), vehicle: Klucel (hydroxypropylcellulose) (HPC)
[5] = dose: 400.0 mg/kg/injection, schedule: Q01DX009 (ip), vehicle: Klucel (hydroxypropylcellulose) (HPC)
[6] = dose: 100.0 mg/kg/injection, schedule: Q01DX009 (ip), vehicle: saline with Tween-80
[7] = dose: 100.0 mg/kg/injection, schedule: Q04DX003 (ip), vehicle: saline with Tween-80
[8] = dose: 200.0 mg/kg/injection, schedule: Q01DX009 (ip), vehicle: saline with Tween-80
[9] = dose: 200.0 mg/kg/injection, schedule: Q04DX003 (ip), vehicle: saline with Tween-80
[10] = dose: 400.0 mg/kg/injection, schedule: Q04DX003 (ip), vehicle: saline with Tween-80
[11] = dose: 100.0 mg/kg/injection, schedule: Q01DX001 (ip), vehicle: saline with Tween-80
[12] = dose: 100.0 mg/kg/injection, schedule: Q04DX002 (ip), vehicle: saline with Tween-80
[13] = dose: 200.0 mg/kg/injection, schedule: Q01DX001 (ip), vehicle: saline with Tween-80
[14] = dose: 200.0 mg/kg/injection, schedule: Q04DX002 (ip), vehicle: saline with Tween-80
[15] = dose: 400.0 mg/kg/injection, schedule: Q01DX001 (ip), vehicle: saline with Tween-80
[16] = dose: 400.0 mg/kg/injection, schedule: Q01DX009 (ip), vehicle: saline with Tween-80
[17] = dose: 400.0 mg/kg/injection, schedule: Q04DX002 (ip), vehicle: saline with Tween-80
[18] = dose: 50.0 mg/kg/injection, schedule: Q01DX001 (ip), vehicle: carboxymethylcellulose (CMC)
[19] = dose: 100.0 mg/kg/injection, schedule: Q01DX001 (ip), vehicle: carboxymethylcellulose (CMC)
[20] = dose: 200.0 mg/kg/injection, schedule: Q01DX001 (ip), vehicle: carboxymethylcellulose (CMC)
[21] = dose: 400.0 mg/kg/injection, schedule: Q01DX001 (ip), vehicle: carboxymethylcellulose (CMC)
[22] = dose: 50.0 mg/kg/injection, schedule: Q01DX009 (ip), vehicle: saline with Tween-80

Measured: T/C

COC(=O)N1C(N2CCCC2=O)C(C)(C)S1(=O)=O (centres undefined)
inactive: dose: 75.0 mg/kg/injection, schedule: Q04DX003 (ip), vehicle: Klucel (hydroxypropylcellulose) (HPC) 102 % of control | dose: 150.0 mg/kg/injection, schedule: Q04DX003 (ip), vehicle: Klucel (hydroxypropylcellulose) (HPC) 94 % of control | dose: 300.0 mg/kg/injection, schedule: Q04DX003 (ip), vehicle: Klucel (hydroxypropylcellulose) (HPC) 89 % of control

CN(C)CC(=O)O
inactive: [1] 94 % of control | [2] 94 % of control | dose: 400.0 mg/kg/injection, schedule: Q01DX009 (ip), vehicle: saline 94 % of control

C(#CCN1CCCCC1)CN1CCCCC1
inactive: dose: 75.0 mg/kg/injection, schedule: Q01DX001 (ip), vehicle: saline 105 % of control | dose: 150.0 mg/kg/injection, schedule: Q01DX001 (ip), vehicle: saline 103 % of control | dose: 300.0 mg/kg/injection, schedule: Q01DX001 (ip), vehicle: saline 101 % of control

O=C(O)CC1NCc2cc3ccccc3nc21 (centres undefined)
inactive: dose: 10.0 mg/kg/injection, schedule: Q04DX003 (ip), vehicle: alcohol 94 % of control | dose: 20.0 mg/kg/injection, schedule: Q04DX003 (ip), vehicle: alcohol 99 % of control | dose: 40.0 mg/kg/injection, schedule: Q04DX003 (ip), vehicle: alcohol 105 % of control | dose: 80.0 mg/kg/injection, schedule: Q04DX003 (ip), vehicle: alcohol 99 % of control | dose: 160.0 mg/kg/injection, schedule: Q04DX003 (ip), vehicle: alcohol 97 % of control

O=C(Nc1nccs1)Nc1ccc(Cl)cc1[N+](=O)[O-]
inactive: [3] 105 % of control | [4] 100 % of control | [5] 102 % of control

CC1(O)c2cccc3c2C2(O)c4c1cccc4C(C)(O)c1cccc(c12)C3(C)O (centres undefined)
inactive: [6] 106 % of control | [7] 103 % of control and 108 % of control | [8] 105 % of control | [9] 114 % of control and 110 % of control | [10] 95 % of control and 101 % of control

COc1ccc(Cl)cc1NC(=O)Oc1ccccc1C(C)C
inactive: [11] 96 % of control | [6] 96 % of control | [12] 95 % of control and 106 % of control | [13] 102 % of control | [8] 98 % of control | [14] 92 % of control and 109 % of control | [15] 87 % of control | [16] 89 % of control | [17] 95 % of control and 91 % of control

CCC1CC2CCC(c3cc4c(cc3OC)N(C)C3C(O)(C(=O)OC)C(OC(C)=O)C5(CC)C=CCN6CCC43C65)c3[nH]c4ccccc4c3CCN(C1)C2 (centres undefined)
inactive: dose: 0.8 mg/kg/injection, schedule: Q01DX001 (ip), vehicle: saline 97 % of control | dose: 1.6 mg/kg/injection, schedule: Q01DX001 (ip), vehicle: saline 97 % of control | dose: 3.2 mg/kg/injection, schedule: Q01DX001 (ip), vehicle: saline 97 % of control | dose: 6.4 mg/kg/injection, schedule: Q01DX001 (ip), vehicle: saline 100 % of control

OC1CCC2CC12 (centres undefined)
inactive: dose: 50.0 mg/kg/injection, schedule: Q01DX001 (ip), vehicle: saline with Tween-80 98 % of control | [11] 102 % of control and 106 % of control | [13] 107 % of control and 95 % of control | [15] 93 % of control

Oc1cccc(/C=N/Nc2nnc(N/N=C/c3cccc(O)c3)c3ccccc23)c1
inactive: [18] 108 % of control | [19] 101 % of control | [20] 98 % of control | [21] 96 % of control

CCOC(=O)c1c[nH]c2nc(N)ccc2c1=O
inactive: dose: 50.0 mg/kg/injection, schedule: Q01DX001 (ip), vehicle: saline 104 % of control | dose: 100.0 mg/kg/injection, schedule: Q01DX001 (ip), vehicle: saline 106 % of control | dose: 200.0 mg/kg/injection, schedule: Q01DX001 (ip), vehicle: saline 106 % of control | dose: 400.0 mg/kg/injection, schedule: Q01DX001 (ip), vehicle: saline 101 % of control

CN(Cc1ccccc1)C(=O)NC1CCCCC1
inactive: dose: 25.0 mg/kg/injection, schedule: Q01DX009 (ip), vehicle: saline 100 % of control and 101 % of control | dose: 50.0 mg/kg/injection, schedule: Q01DX009 (ip), vehicle: saline 100 % of control and 101 % of control | [6] 102 % of control | [1] 97 % of control and 100 % of control | [12] 94 % of control and 96 % of control | [7] 101 % of control | [8] 94 % of control and 105 % of control | [2] 96 % of control and 97 % of control | [14] 96 % of control and 100 % of control | [9] 102 % of control | [16] 95 % of control and 105 % of control | [17] 100 % of control and 92 % of control | [10] 95 % of control

COC(=O)CCC(NC(=O)c1cccc(N(C)C=O)c1)C(=O)OC (centres undefined)
inactive: [22] 97 % of control | [6] 95 % of control | [8] 105 % of control

CC(=O)/C(C)=N\NC(=O)c1ccccn1
inactive: dose: 25.0 mg/kg/injection, schedule: Q01DX015 (ip), vehicle: water 119 % of control | dose: 50.0 mg/kg/injection, schedule: Q01DX001 (ip), vehicle: water 108 % of control | dose: 50.0 mg/kg/injection, schedule: Q01DX015 (ip), vehicle: water 108 % of control | dose: 100.0 mg/kg/injection, schedule: Q01DX001 (ip), vehicle: water 121 % of control | dose: 100.0 mg/kg/injection, schedule: Q01DX015 (ip), vehicle: water 119 % of control | dose: 200.0 mg/kg/injection, schedule: Q01DX001 (ip), vehicle: water 108 % of control

S=c1[nH]c2ccccc2s1
inactive: dose: 25.0 mg/kg/injection, schedule: Q01DX009 (ip), vehicle: saline with Tween-80 94 % of control | [22] 105 % of control | [3] 88 % of control | [6] 109 % of control | dose: 100.0 mg/kg/injection, schedule: Q04DX002 (ip), vehicle: saline 115 % of control | dose: 100.0 mg/kg/injection, schedule: Q04DX003 (ip), vehicle: other 96 % of control | [7] 96 % of control | [4] 100 % of control | dose: 200.0 mg/kg/injection, schedule: Q04DX002 (ip), vehicle: saline 112 % of control | dose: 200.0 mg/kg/injection, schedule: Q04DX003 (ip), vehicle: other 96 % of control | [9] 100 % of control | [5] 95 % of control | dose: 400.0 mg/kg/injection, schedule: Q04DX003 (ip), vehicle: other 101 % of control

CC#CC(C)=O
inactive: dose: 25.0 mg/kg/injection, schedule: Q04DX003 (ip), vehicle: saline 100 % of control | dose: 50.0 mg/kg/injection, schedule: Q04DX003 (ip), vehicle: saline 92 % of control | dose: 100.0 mg/kg/injection, schedule: Q04DX003 (ip), vehicle: saline 100 % of control

CCC(NC(=O)OCc1ccccc1)C(=O)NC(C(=O)OCc1ccccc1)C(C)C (centres undefined) (Cbz-[Abu]-Val-OBn; configuration not given here)
inactive: [3] 96 % of control | [4] 99 % of control | [5] 96 % of control

CCc1nc(N[N+](=O)[O-])nc(-c2ccccc2)c1-c1ccccc1O
inactive: dose: 100.0 mg/kg/injection, schedule: Q04DX002 (ip), vehicle: Klucel (hydroxypropylcellulose) (HPC) 107 % of control | dose: 200.0 mg/kg/injection, schedule: Q04DX002 (ip), vehicle: Klucel (hydroxypropylcellulose) (HPC) 94 % of control | dose: 400.0 mg/kg/injection, schedule: Q04DX002 (ip), vehicle: Klucel (hydroxypropylcellulose) (HPC) 107 % of control

FC1(F)SC2C3CC(C4CCC=C43)C2C1(F)F (centres undefined)
inactive: dose: 0.78 mg/kg/injection, schedule: Q01DX009 (ip), vehicle: Klucel (hydroxypropylcellulose) (HPC) 96 % of control | dose: 1.56 mg/kg/injection, schedule: Q01DX009 (ip), vehicle: Klucel (hydroxypropylcellulose) (HPC) 93 % of control | dose: 1.56 mg/kg/injection, schedule: Q04DX003 (ip), vehicle: Klucel (hydroxypropylcellulose) (HPC) 102 % of control | dose: 3.13 mg/kg/injection, schedule: Q04DX003 (ip), vehicle: Klucel (hydroxypropylcellulose) (HPC) 100 % of control

N#CCC(=O)N1CCCCC1
inactive: [18] 93 % of control | [19] 93 % of control | [20] 114 % of control | [21] 95 % of control
